This assay concerns the target T1, Endothelial lipase (EL) (Homo sapiens, UniProt Q9Y5X9).
T1 construct: HT-1080 cells, which were transformed by RAGE technology (Athersys) to overexpress endogenous EL; endogenous in cells; conditioned medium used as the enzyme source
T1 sequence (Q9Y5X9 21-500): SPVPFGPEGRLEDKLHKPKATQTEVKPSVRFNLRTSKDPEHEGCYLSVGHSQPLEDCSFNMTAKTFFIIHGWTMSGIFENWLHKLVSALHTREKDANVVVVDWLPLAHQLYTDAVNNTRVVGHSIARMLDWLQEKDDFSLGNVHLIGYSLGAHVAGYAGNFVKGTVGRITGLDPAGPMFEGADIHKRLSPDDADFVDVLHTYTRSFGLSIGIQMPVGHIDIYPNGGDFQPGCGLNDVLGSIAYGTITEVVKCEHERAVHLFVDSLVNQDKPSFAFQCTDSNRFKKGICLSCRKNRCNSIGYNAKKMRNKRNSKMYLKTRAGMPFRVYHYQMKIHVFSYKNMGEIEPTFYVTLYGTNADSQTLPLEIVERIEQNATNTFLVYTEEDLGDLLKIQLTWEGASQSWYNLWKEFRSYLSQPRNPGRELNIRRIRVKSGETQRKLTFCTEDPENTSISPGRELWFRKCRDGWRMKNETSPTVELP
Put plainly: Endothelial lipase (EL) enzymatic assay with fluorescent substrate A10070 in DMPG vesicles. It is filed as biochemical. The method, boiled down:
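The enzyme source was conditioned medium from HT-1080 cells engineered to overexpress endogenous EL. It was preincubated with compound for 20 min at 37 °C in 50 mM HEPES pH 8.0, 50 mM NaCl, 1 mM CaCl2. Reactions started with DMPG vesicles carrying FRET substrate A10070 (mole fraction 0.05). The rate was taken from the linear slope of fluorescence (ex 488/em 530 nm) over 10 min.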

[1] abbreviates: conditioned media from HT-1080 cells overexpressing endogenous EL, 20 min preincubation at 37° C., read-out: EL IC50.
The mark [2] stands for this setting: range observed in the EL assay, read-out: EL IC50 values.

Where two headings read alike, the source gives them in different places.

These results are taken from patent US9199946B2, “Pyrimidinone carboxamide inhibitors of endothelial lipase” (BRISTOL-MYERS SQUIBB COMPANY, priority 2012, dated 2015).

As to `O=C(N[C@@H]1CCCc2c(OCc3ccccc3)cccc21)c1[nH]c(=O)[nH]c(=O)c1O` [Example 258, (R)-N-(5-(benzyloxy)-1,2,3,4-tetrahydronaphthalen-1-yl)-5-hydroxy-2,6-dioxo-1,2,3,6-tetrahydropyrimidine-4-carboxamide], the concentration for half-maximal inhibition (IC50) (in general, the point on the concentration scale where inhibition reaches its midpoint) under setting [1] is 0.01 µM and the concentration for half-maximal inhibition (IC50) under setting [2] was ≤ 10 µM.
Turning to `Nc1c(C(=O)NC2CCOc3ccccc32)[nH]c(=O)[nH]c1=O` (centres unmarked) [Example 32, 5-amino-N-(chroman-4-yl)-2,6-dioxo-1,2,3,6-tetrahydropyrimidine-4-carboxamide], the IC50 under setting [1] came out at 3.74 µM and the IC50 under setting [2] is ≤ 10 µM.
As for `Nc1c(C(=O)NC2CCC(c3nc4ccc(-c5ccccc5)cc4s3)C2)[nH]c(=O)[nH]c1=O` (centres unmarked) [Example 144, 5-amino-2,6-dioxo-N-(3-(6-phenylbenzo[d]thiazol-2-yl)cyclopentyl)-1,2,3,6-tetrahydropyrimidine-4-carboxamide], the 50% inhibitory concentration (IC50) under setting [2] is ≤ 10 µM.
In the case of `O=C(N[C@H]1CCCc2c1cccc2C(F)(F)F)c1[nH]c(=O)[nH]c(=O)c1O` [Example 266, (S)-5-hydroxy-2,6-dioxo-N-(5-(trifluoromethyl)-1,2,3,4-tetrahydronaphthalen-1-yl)-1,2,3,6-tetrahydropyrimidine-4-carboxamide], the concentration for half-maximal inhibition (IC50) under setting [2] is ≤ 10 µM.
As for `Nc1c(C(=O)N[C@H]2CC[C@@H](c3nc(-c4ccc(Cl)c(Cl)c4)no3)CC2)[nH]c(=O)[nH]c1=O` [Example 48, 5-amino-N-(cis-4-(3-(3,4-dichlorophenyl)-1,2,4-oxadiazol-5-yl)cyclohexyl)-2,6-dioxo-1,2,3,6-tetrahydropyrimidine-4-carboxamide], the 50% inhibitory concentration (IC50) was 0.447 µM under setting [1] and ≤ 10 µM under setting [2].
For the compound `O=C(N[C@H]1CCC[C@H](c2ccccc2)C1)c1[nH]c(=O)[nH]c(=O)c1O` [Example 277, 5-hydroxy-2,6-dioxo-N-((1S,3S)-3-phenylcyclohcxyl)-1,2,3,6-tetrahydropyrimidine-4-carboxamide], the IC50 under setting [2] was ≤ 10 µM.
Still for that read-out and setting: to `O=C(NC1CCC(c2cnn(Cc3ccccc3)c2)C1)c1[nH]c(=O)[nH]c(=O)c1O` (centres unmarked) [Example 283, N-(3-(1-benzyl-1H-pyrazol-4-yl)cyclopentyl)-5-hydroxy-2,6-dioxo-1,2,3,6-tetrahydropyrimidine-4-carboxamide] belongs ≤ 10 µM; to `O=C(N[C@H]1CC[C@@H](NC(=O)c2[nH]c(=O)[nH]c(=O)c2O)CC1)c1ccccc1` [Example 260, N-((1s,4s)-4-benzamidocyclohexyl)-5-hydroxy-2,6-dioxo-1,2,3,6-tetrahydropyrimidine-4-carboxamide], ≤ 10 µM; to `Nc1c(C(=O)N[C@@H]2CCCc3c(CCc4ccccc4)cccc32)[nH]c(=O)[nH]c1=O` [Example 111, (R)-5-amino-2,6-dioxo-N-(5-phenethyl-1,2,3,4-tetrahydronaphthalen-1-yl)-1,2,3,6-tetrahydropyrimidine-4-carboxamide], ≤ 10 µM.
In the case of `Nc1c(C(=O)N[C@H]2CC[C@@H](NC(=O)c3ccccc3)CC2)[nH]c(=O)[nH]c1=O` [Example 115, 5-amino-N-(cis-4-benzamidocyclohexyl)-2,6-dioxo-1,2,3,6-tetrahydropyrimidine-4-carboxamide], the IC50 under setting [2] was ≤ 10 µM.
In the case of `O=C(N[C@H]1CC[C@@H](c2ccccc2)CC1)c1[nH]c(=O)[nH]c(=O)c1NCCN1CCOCC1` [Example 211, 5-(2-morpholinoethylamino)-2,6-dioxo-N-(cis-4-phenylcyclohexyl)-1,2,3,6-tetrahydropyrimidine-4-carboxamide], the IC50 is, setting by setting: under setting [1], 0.291 µM; under setting [2], ≤ 10 µM.
As to `Nc1c(C(=O)NC2CCN(c3ccc(C(F)(F)F)cn3)C2)[nH]c(=O)[nH]c1=O` (centres unmarked) [Example 190, 5-amino-2,6-dioxo-N-(1-(5-(trifluoromethyl)pyridin-2-yl)pyrrolidin-3-yl)-1,2,3,6-tetrahydropyrimidine-4-carboxamide], the concentration for half-maximal inhibition (IC50) is 0.276 µM under setting [1] and ≤ 10 µM under setting [2].
With `CC1C(NC(=O)c2[nH]c(=O)[nH]c(=O)c2N)CC2(C(C)C)CC12` (centres unmarked) [Example 57, 5-amino-N-(1-isopropyl-4-methylbicyclo[3.1.0]hexan-3-yl)2,6-dioxo-1,2,3,6-tetrahydropyrimidine-4-carboxamide], the IC50 reads like this: under setting [1], 4.89 µM; under setting [2], ≤ 10 µM.
`O=C(N[C@@H]1CCCc2cc(OCC(F)(F)F)ccc21)c1[nH]c(=O)[nH]c(=O)c1O` [Example 256, (R)-5-hydroxy-2,6-dioxo-N-(6-(2,2,2-trifluoroethoxy)-1,2,3,4-tetrahydronaphthalen-1-yl)-1,2,3,6-tetrahydropyrimidine-4-carboxamide]: the IC50 under setting [2] was ≤ 10 µM.
Consider `Nc1c(C(=O)NC2CCCc3c2sc2nc[nH]c(=O)c32)[nH]c(=O)[nH]c1=O` (centres unmarked) [Example 45, 5-amino-2,6-dioxo-N-(4-oxo-1,4,5,6,7,8-hexahydro[1]benzothieno[2,3-d]pyrimidin-8-yl)-1,2,3,6-tetrahydro-4-pyrimidinecarboxamide], for which the 50% inhibitory concentration (IC50) runs as follows: under setting [1], 3.37 µM; under setting [2], ≤ 10 µM.
`Nc1c(C(=O)N[C@@H]2CCCc3c2cccc3C(F)(F)F)[nH]c(=O)[nH]c1=O` [Example 49, (R)-5-amino-2,6-dioxo-N-(5-(trifluoromethyl)-1,2,3,4-tetrahydronaphthalen-1-yl)-1,2,3,6-tetrahydropyrimidine-4-carboxamide]: the half-inhibitory concentration (IC50) under setting [2] was ≤ 10 µM.
Regarding `CS(=O)(=O)N1CCC(NC(=O)c2[nH]c(=O)[nH]c(=O)c2N)c2ccccc21` (single isomer, unassigned; enantiomer b) [Example 196, 5-amino-N-(1-(methylsulfonyl)-1,2,3,4-tetrahydroquinolin-4-yl)-2,6-dioxo-1,2,3,6-tetrahydropyrimidine-4-carboxamide (Enantiomer B)], the IC50 under setting [2] is ≤ 10 µM.
Consider `O=C(N[C@@H]1CCCc2c(NCc3ccccc3)cccc21)c1[nH]c(=O)[nH]c(=O)c1O` [Example 286, (R)-N-(5-(benzylamino)-1,2,3,4-tetrahydronaphthalen-1-yl)-5-hydroxy-2,6-dioxo-1,2,3,6-tetrahydropyrimidine-4-carboxamide], for which the concentration for half-maximal inhibition (IC50) under setting [2] was ≤ 10 µM.
With `O=C(N[C@H]1CC[C@@H](c2ccccc2)C1)c1[nH]c(=O)[nH]c(=O)c1O` [Example 273, 5-hydroxy-2,6-dioxo-N-((1S,3R)-3-phenylcyclopentyl)-1,2,3,6-tetrahydropyrimidine-4-carboxamide], under setting [2], the IC50 was ≤ 10 µM.
Turning to `N#C[C@]1(c2ccc(Cl)c(Cl)c2)CC[C@@H](NC(=O)c2[nH]c(=O)[nH]c(=O)c2N)CC1` [Example 7, 5-amino-N-(cis-4-cyano-4-(3,4-dichlorophenyl)cyclohexyl)-2,6-dioxo-1,2,3,6-tetrahydropyrimidine-4-carboxamide], the half-maximal inhibitory concentration (IC50) under setting [2] was ≤ 10 µM.
On to `Nc1c(C(=O)N[C@@H]2CC[C@@H](c3ccccc3)c3ccccc32)[nH]c(=O)[nH]c1=O` [Example 20, 5-amino-2,6-dioxo-N-((1R,4S)-4-phenyl-1,2,3,4-tetrahydronaphthalen-1-yl)-1,2,3,6-tetrahydropyrimidine-4-carboxamide], for which the IC50 under setting [2] is ≤ 10 µM.
Consider `O=C(N[C@H]1CC[C@@H](c2ccccc2)CC1)c1[nH]c(=O)[nH]c(=O)c1NCC(F)(F)F` [Example 228, 2,6-dioxo-N-(cis-4-phenylcyclohexyl)-5-(2,2,2-trifluoroethylamino)-1,2,3,6-tetrahydropyrimidine-4-carboxamide], for which the concentration for half-maximal inhibition (IC50) under setting [2] was ≤ 10 µM.
